Source: patent publication US20220306585A1, “PYRAZOLE DERIVATIVES FOR CONTROLLING ARTHROPODS” (Bayer Animal Health GmbH, priority 2019, published 2022)

Key:
[1] = Evaluation of pharmacokinetics in vivo (rat); settings: concentration of Parent Drug A after admin. of the named substance
Protocol: Evaluation of Pharmacokinetics (In Vivo) To evaluate the pharmacokinetics of test substances in vivo, these test substances are dissolved in appropriate formulation vehicles (ethanol, dimethyl sulfoxide, PEG400, glycerol formal etc.), or mixtures thereof. The test substances are then administered to rats or dogs intravenously, orally or subcutaneously. The intravenous application is performed as bolus. Administered doses range usually between 0.1 to 5 mg/kg, however, doses for subcutaneous and oral administration can exceed this range up to doses of 30 mg/kg. Blood samples are retrieved via a catheter, exsanguination or venous puncture in vials containing appropriate anticoagulants, such as lithium heparinate or potassium EDTA. Plasma is generated from the blood via centrifugation. Blood samples are taken over an appropriate time interval, usually lasting up to 144 h after administration. If necessary, samples from later time points can also be taken. If possible, time points are chosen so that the initial absorption phase, the maximum plasma concentration (Cmax), and exposure within a certain time interval (AUC(0-t))aer described. Furthermore, it is possible to also retrieve organ-, tissue- and urine samples. The quantitative measurement of the test substances in the samples is performed using calibration curves in the respective matrices. The protein content of the samples is precipitated using acetonitrile or methanol. Thereafter, the samples are separated using HPLC in combination with reversed phase chromatography columns. The HPLC system is coupled to a triple quadrupole mass spectrometer via an electrospray interface. The evaluation of the plasma concentration/time profiles are afterwards evaluated using a validated pharmacokinetics evaluation program. […] Relative bioavailability (Frel) was used to describe the exposure of parent drug after prodrug administration compared to the exposure of parent drug after direct administration of compound A which was normalised to 100%.

[2] = system: Dermacentor variabilis nymph; test: Antiparasitic activity after administration to rats: ticks; assay type: in vivo; settings: 11.97 mg/kg sc, Dermacentor variabilis nymph
Procedure, shortened: (§1)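 Compounds dissolved in glycerol formal, given i.p. or s.c. to rats, 5 per group. Infestation with 30 D. variabilis nymphs (days −2, 7, 14, 21, 28, 35) and 30 adult C. felis (days −1, 8, 15, 22, 29, 36), with counts on days 2, 9, 16, 23, 30, 37. Percent efficacy compares mean live attached ticks or live fleas with a placebo-treated group.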

[3] = system: Ctenocephalides felis adult; test: Antiparasitic activity after administration to rats: fleas; assay type: in vivo; settings: 11.97 mg/kg sc, Ctenocephalides felis adult
Procedure, shortened: as §1

[4] = Degradation of prodrugs and release of parent drug in rat plasma; assay type: in vitro ADME; settings: male, Hannover-Janvier RjHan, rat plasma (Li-heparin), 37° C., percent area of prodrug at t0
Procedure, shortened: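 Prodrug spiked into male Hannover rat Li-heparin plasma at 37 °C. Samples at 0.17–4 h quenched in acetonitrile/citric acid pH 3, then analysed by HPLC, with HPLC-MS at final time point. Prodrug loss and parent drug appearance given as percent area of prodrug at t0.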

[5] = Measurement of stability of prodrugs in buffer at pH 7.4; assay type: physicochemical; settings: PBS buffer pH 7.4, 37° C., HPLC peak area, read-out: % Recovery after 24 h (stability at pH 7.4)
Procedure, shortened: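 Test compound (0.15 mg) in DMSO/acetonitrile was mixed with PBS pH 7.4 and held at 37 °C for 24 h. Remaining compound was followed by HPLC as peak area percentage of total area. The final time point was also analysed by HPLC-MS.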

[6] = Degradation of prodrugs and release of parent drug in dog plasma; assay type: in vitro ADME; settings: male, Beagle, dog plasma (EDTA stabilized), 37° C., percent area of prodrug at t0
Protocol: Measurement of Release of Parent Drug in Dog Plasma 1 mg of the test compound was dissolved in 0.5 mL acetonitrile/dimethylsulfoxide 9:1. For complete dissolution the HPLC vial was shaken and treated with ultrasound. 20 μL of this solution were added to 1 mL of dog plasma (Beagle, male; EDTA stabilized) under vortexing at a temperature of 37° C. Aliquots (100 μL each) were taken at 0.17, 0.5, 1, 1.5, 2 and 4 hours. Each aliquot was transferred to a vial containing 300 μL of acetonitrile/citric acid buffer pH 3 80:20. These solutions were centrifuged at 5000 rpm for 10 minutes. The supernatant was analysed by HPLC (Method 8) to determine the amount of the test compound. In addition, the reaction mixture was analysed by method 9 (HPLC-MS) at the final timepoint. Both decrease of the prodrug concentration and increase of parent drug concentration were monitored. All data is given as percent area of the prodrug at t0.

AUC(0-144 h)norm of parent drug A ([1]; iv bolus): 7.3 kg·h/L
AUC(0-144 h)norm of parent drug A ([1]; sc): 5.9 kg·h/L
recovery at 0.17 h, 39 µg/mL ([4]; 0.17 h): 96%
recovery at 0.5 h, 39 µg/mL ([4]; 0.5 h): 85%
recovery at 1 h, 39 µg/mL ([4]; 1 h): 63%
recovery at 1.5 h, 39 µg/mL ([4]; 1.5 h): 49%
recovery at 2 h, 39 µg/mL ([4]; 2 h): 35%
recovery at 4 h, 39 µg/mL ([4]; 4 h): 14%
recovery at 24 h, 0.1 mg/mL [5]: 97%
recovery at 0.17 h, 39 µg/mL ([6]; 0.17 h): 95%
recovery at 0.5 h, 39 µg/mL ([6]; 0.5 h): 79%
recovery at 1 h, 39 µg/mL ([6]; 1 h): 51%
recovery at 1.5 h, 39 µg/mL ([6]; 1.5 h): 33%
recovery at 2 h, 39 µg/mL ([6]; 2 h): 18%
recovery at 4 h, 39 µg/mL ([6]; 4 h): 0%
SMILES: N#CC1(N(COC(=O)/C=C/C(=O)O)C(=O)c2cc(-c3cnn(-c4c(Cl)cc(C(F)(C(F)(F)F)C(F)(F)F)cc4OC(F)(F)F)c3)ccc2Cl)CC1 [Example 13, (2E)-4-{[(2-Chloro-5-{1-[2-chloro-4-(1,1,1,2,3,3,3-heptafluoropropan-2-yl)-6-(trifluoromethoxy)phenyl]-1H-pyrazol-4-yl}benzoyl)(1-cyanocyclopropyl)amino]methoxy}-4-oxobut-2-enoic acid]
In-vivo Efficacy SD2 ([2]; study day 2): 100%
In-vivo Efficacy SD9 ([2]; study day 9): 100%
In-vivo Efficacy SD16 ([2]; study day 16): 99%
In-vivo Efficacy SD23 ([2]; study day 23): 77%
In-vivo Efficacy SD30 ([2]; study day 30): 59%
In-vivo Efficacy SD37 ([2]; study day 37): 49%
In-vivo Efficacy SD2 ([3]; study day 2): 100%
In-vivo Efficacy SD9 ([3]; study day 9): 97%
In-vivo Efficacy SD16 ([3]; study day 16): 96%
In-vivo Efficacy SD23 ([3]; study day 23): 79%
In-vivo Efficacy SD30 ([3]; study day 30): 57%
In-vivo Efficacy SD37 ([3]; study day 37): 51%
